One data set relates to HCV replicon. The experiment in a line: HCV replicon assay (FRET / luciferase reporter). The note with it: Hepatitis C virus; HCV replicon cells (HUH-7). It is filed as cell-based. An excerpt:
FRET Assay Preparation. To perform the HCV FRET screening assay, 96-well cell culture plates were used. The FRET peptide (Anaspec, Inc.) (Taliani et al., Anal. Biochem. 1996, 240, 60-67) contains a fluorescence donor, EDANS, near one end of the peptide and an acceptor, DABCYL, near the other end. The fluorescence of the peptide is quenched by […] resonance energy transfer (RET) between the donor and the acceptor, but as the NS3 protease cleaves the peptide the products are released from RET quenching and the fluorescence of the donor becomes apparent. The assay reagent was made as follows: 5× cell Luciferase cell culture lysis reagent from Promega (#E153A) diluted to 1× with dH2O, NaCl added to 150 mM final, the FRET peptide diluted to 20 μM final from a 2 mM stock. […]
Assays. […] After reading in a Cytoflour 4000 instrument (PE Biosystems), plates were rinsed with PBS and then used for FRET assay by the addition of 30 ul of the FRET peptide assay reagent described above (FRET Assay Preparation) per well. The plate was then placed into the Cytoflour 4000 instrument which had been set to 340 excite/490 emission, automatic mode for 20 cycles and the plate read in a kinetic mode. Typically, the signal to noise using an endpoint analysis after the reads was at least three-fold. Alternatively, after Alamar blue reading, plates were rinsed with PBS, 50 ul of DMEM (high glucose) without phenol red was added and plates were then used for luciferase assay using the Promega Dual-Glo Luciferase Assay System.
Compound analysis was determined by quantification of the relative HCV replicon inhibition and the relative cytotoxicity values. To calculate cytoxicity values, the average Alamar Blue fluorescence signals from the control wells were set as 100% non-toxic. […]
A general note: A replicon is a self-replicating genome or part of one, used to study replication in cells.

Data set [1] addresses T1, HCV NS5B RdRp genotype 1b (Hepatitis C virus genotype 1b, UniProt Q9WMX2).
T1 construct: The cDNA encoding the NS5B protein of HCV, genotype 1b; made in house; host or cells: E. coli BL21 (DE3)
As to the kind of experiment: HCV NS5B RdRp enzyme assay. It is filed as biochemical. As to conditions: standard or modified assay not stated. How it is done: HCV NS5B RdRp cloning, expression, and purification. The cDNA encoding the NS5B protein of HCV, genotype 1b, was cloned into the pET21a expression vector. The protein was expressed with an 18 amino acid C-terminal truncation to enhance the solubility. The E. coli competent cell line BL21 (DE3) was used for expression of the protein. Cultures were grown at 37° C. for ˜4 hours until the cultures reached an optical density of 2.0 at 600 nm. The cultures were cooled to 20° C. and induced with 1 mM IPTG. Fresh ampicillin was added to a final concentration of 50 μg/ml and the cells were grown overnight at 20° C.
Cell pellets (3L) were lysed for purification to yield 15-24 mgs of purified NS5B. The lysis buffer consisted of 20 mM Tris-HCl, pH 7.4, 500 mM NaCl, 0.5% triton X-100, 1 mM DTT, 1 mM EDTA, 20% glycerol, 0.5 mg/ml lysozyme, 10 mM MgCl2, 15 ug/ml deoxyribonuclease I, and Complete TM protease inhibitor tablets (Roche). After addition of the lysis buffer, frozen cell pellets were resuspended using a tissue homogenizer. To reduce the viscosity of the sample, aliquots of the lysate were sonicated on ice using a microtip attached to a Branson sonicator. The sonicated lysate was centrifuged at 100,000×g for 1 hr at 4° C. and filtered through a 0.2 μm filter unit (Corning).
The protein was purified using three sequential chromatography steps: Heparin sepharose CL-6B, polyU sepharose 4B, and Hitrap SP sepharose (Pharmacia). The chromatography buffers were identical to the lysis buffer but contained no lysozyme, deoxyribonuclease I, MgCl2 or protease inhibitor and the NaCl concentration of the buffer was adjusted according to the requirements for charging the protein onto the column. Each column was eluted with a NaCl gradient which varied in length from 5-50 column volumes depending on the column type. After the final chromatography step, the resulting purity of the enzyme is >90% based on SDS-PAGE analysis. The enzyme was aliquoted and stored at −80° C.
Standard HCV NS5B RdRp enzyme assay. HCV RdRp genotype 1b assays were run in a final volume of 60 μl in 96 well plates (Costar 3912). The assay buffer is composed of 20 mM Hepes, pH 7.5, 2.5 mM KCl, 2.5 mM MgCl2, 1 mM DTT, 1.6 U RNAse inhibitor (Promega N2515), 0.1 mg/ml BSA (Promega R3961), and 2% glycerol. All compounds were serially diluted (3-fold) in DMSO and diluted further in water such that the final concentration of DMSO in the assay was 2%. HCV RdRp genotype 1b enzyme was used at a final concentration of 28 nM. A polyA template was used at 6 nM, and a biotinylated oligo-dT12 primer was used at 180 nM final concentration. […] Plates were read on a Packard Top Count NXT after >1 hr incubation at room temperature. […]
IC50 values for compounds were determined using seven different [I]. […]

For another data set, the system named is HCV. As to conditions: cited from earlier work.

T1 sequence (Q9WMX2 2420-2992): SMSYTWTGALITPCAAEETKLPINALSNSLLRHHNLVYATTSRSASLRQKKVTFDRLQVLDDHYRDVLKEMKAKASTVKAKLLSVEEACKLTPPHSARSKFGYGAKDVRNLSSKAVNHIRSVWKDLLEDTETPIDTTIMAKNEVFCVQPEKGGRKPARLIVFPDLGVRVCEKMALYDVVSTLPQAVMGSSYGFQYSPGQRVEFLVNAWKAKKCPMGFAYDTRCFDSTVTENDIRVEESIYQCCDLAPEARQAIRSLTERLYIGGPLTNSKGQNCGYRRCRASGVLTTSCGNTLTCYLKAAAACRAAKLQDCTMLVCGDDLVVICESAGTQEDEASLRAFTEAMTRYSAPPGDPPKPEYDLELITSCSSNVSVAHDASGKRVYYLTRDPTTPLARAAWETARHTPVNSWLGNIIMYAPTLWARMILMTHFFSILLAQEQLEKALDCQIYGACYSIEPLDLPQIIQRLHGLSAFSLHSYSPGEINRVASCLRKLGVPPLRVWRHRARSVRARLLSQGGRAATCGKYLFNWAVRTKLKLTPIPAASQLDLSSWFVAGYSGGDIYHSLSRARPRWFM

Regarding `CNC(=O)c1c(-c2ccc(F)cc2)nn2ncc(-c3cc(C(=O)NC4(c5ccccc5)CC4)ccc3C)cc12` [Example 1, 2-(4-fluorophenyl)-N-methyl-5-(2-methyl-5-(1-phenylcyclopropylcarbamoyl)phenyl)pyrazolo[1,5-b]pyridazine-3-carboxamide], a half-maximal effect with HCV replicon (EC50) was put at 5 nM. In data set [1], the IC50 (in general, the concentration needed to halve the response being measured) is less than 17 nM. As to `CNC(=O)c1c(-c2ccc(F)cc2)nn2nccc(-c3cc(C(=O)NC4(c5ccccc5)CC4)ccc3C)c12` [Example 2, 2-(4-fluorophenyl)-N-methyl-4-(2-methyl-5-(1-phenylcyclopropylcarbamoyl)phenyl)pyrazolo[1,5-b]pyridazine-3-carboxamide], in data set [1], the IC50 stood at 3060 nM. Consider `CNC(=O)c1c(-c2ccc(F)cc2)nn2ncc(-c3cc(C(=O)NC4(c5ccccc5)CC4)c(OC)cc3C)cc12` [Example 3, 2-(4-fluorophenyl)-5-(4-methoxy-2-methyl-5-(1-phenylcyclopropylcarbamoyl)phenyl)-N-methylpyrazolo[1,5-b]pyridazine-3-carboxamide], for which the EC50 (as a rule, the concentration at which the effect is half-maximal) in the data set on HCV replicon amounted to 2 nM. Moreover, it took 11 nM to reach half-maximal inhibition in data set [1] (IC50). The matching figures for `CNC(=O)c1c(-c2ccc(F)cc2)nn2ncc(-c3cc(C(=O)NC4(c5ncccn5)CC4)c(OC)cc3C)cc12` [Example 4, 2-(4-fluorophenyl)-5-(4-methoxy-2-methyl-5-(1-(pyrimidin-2-yl)cyclopropylcarbamoyl)phenyl)-N-methylpyrazolo[1,5-b]pyridazine-3-carboxamide]: 12 nM and 14 nM. In the case of `CNC(=O)c1c(-c2ccc(F)cc2)oc2cc(N(CCO)S(C)(=O)=O)c(C3CC3)cc12` [HCV-796], the “toxicity during extended dosing” value with HCV (patients, extended dosing of the combination regimens) was “hepatic toxicity observed”. Also, in the data set on HCV (single agent or combined with interferon and ribavirin), the “HCV RNA levels in patients” value is reported as “showed an ability to reduce HCV RNA levels in patients”.

The values are drawn from US8324212B2, “Compounds for the treatment of hepatitis C” (Bristol-Myers Squibb Company, priority 2010, dated 2012).
